Measurements from patent publication US20190315823A1, “SMALL CATIONIC ANTI-BIOFILM AND IDR PEPTIDES” (priority 2013, published 2019).
Ends that are not written are not given here.

Columns and labels:
[1] = test system: LPS-stimulated human peripheral blood mononuclear cells (IL1-β); format: cell-based; settings: Table 12, cells stimulated with 10 ng/ml LPS; for IL1β Production: LPS alone 1313 (HH2 derivatives), 1927 (1018 derivatives), 2455 (1002 and hybrid peptides) pg/ml
Procedure: LPS from P. aeruginosa strain H103 was highly purified free of proteins and lipids using the Darveau-Hancock method. Briefly, P. aeruginosa was grown overnight in LB broth at 37° C. Cells were collected and washed and the isolated LPS pellets were extracted with a 2:1 chloroform:methanol solution to remove contaminating lipids. Purified LPS samples were quantitated using an assay for the specific sugar 2-keto-3-deoxyoctosonic acid (KDO assay) and then resuspended in endotoxin-free water (Sigma-Aldrich).

[2] = test system: human peripheral blood mononuclear cells (MCP-1); assay: SPOT-synthesized derivative screen: production of chemokine MCP-1; format: cell-based; settings: Table 12, No LPS, human PBMC, peptide at ~18-24 μM; for MCP1: background subtracted 139 (HH2 derivatives), 170 (1018 derivatives), 242 (1002 and hybrid peptides) pg/ml
Procedure: Venous blood (20 ml) from healthy volunteers was collected in Vacutainer® collection tubes containing sodium heparin as an anticoagulant (Becton Dickinson, Mississauga, ON) in accordance with UBC ethical approval and guidelines. Blood was diluted 1:1 with complete RPMI 1640 medium and separated by centrifugation over a Ficoll-Paque® Plus (Amersham Biosciences, Piscataway, N.J., USA) density gradient. White blood cells were isolated from the buffy coat, washed twice in RPMI 1640 complete medium, and the number of peripheral blood mononuclear cells (PBMC) was determined by Trypan blue exclusion. PBMC (5×10^5) were seeded into 12-well tissue culture dishes (Falcon; Becton Dickinson) at 0.75 to 1×10^6 cells/ml at 37° C. in 5% CO2. The above conditions were chosen to mimic conditions for circulating blood monocytes entering tissues at the site of infection via extravasation.
Following incubation of the cells under various treatment regimens, the tissue culture supernatants were centrifuged at 1000×g for 5 min, then at 10,000×g for 2 min to obtain cell-free samples. Supernatants were aliquoted and then stored at −20° C. prior to assay for various chemokines by capture ELISA (eBioscience and BioSource International Inc., CA, USA respectively)

[3] = test system: methicillin resistant Staphylococcus aureus (MRSA) biofilm; settings: approximate peptide concentration […] (around 3 μg/ml); compared to untreated samples
Procedure: Methods of assessment of anti-biofilm activity—Biofilm formation was initially analyzed using a static abiotic solid surface assay as described elsewhere (de la Fuente-Nunez et al., 2012). Dilutions (1/100) of overnight cultures were incubated in BM2 biofilm-adjusted medium [62 mM potassium phosphate buffer (pH 7), 7 mM (NH4)2SO4, 2 mM MgSO4, 10 μM FeSO4, 0.4% (wt/vol) glucose, 0.5% (wt/vol) Casamino Acids], or a nutrient medium such as Luria Broth, in polypropylene microtiter plates (Falcon, United States) in the absence (control) or presence of peptide. Peptide was added at time zero (prior to adding the diluted, overnight cultures) in varying concentrations, and the decrease in biofilm formation was recorded at 22-46 h for most bacteria. Planktonic cells were removed, biofilm cells adhering to the side of the tubes were stained with crystal violet, and absorbance at 595 nm was measured using a microtiter plate reader (Bio-Tek Instruments Inc., United States). Some peptides were screened against two Gram negative organisms, P. aeruginosa and K. pneumoniae using a Bioflux apparatus (AutoMate Scientific, Berkeley, Calif.; http://www.autom8.com/bioflux_biofilm.html), which allows for the high-throughput, real-time analysis of biofilms.

Row | Substance | Fold change in IL1β relative to no peptide LPS stimulated cells [1] | IL1β Production [1] | Fold increase in MCP1 cf. untreated cells [2] | MCP1 [2] | % Biofilm inhibition [3]
1 | 1018-V4: single substituted 1018 peptide (VRLVVAVRIWRR-NH2) [Peptide 1018-V4] | 0.11 | 144 pg/mL | 1.2 | 29 pg/mL | 75%
2 | 1002-G6: single substituted 1002 peptide (VQRWLGVWRIRK-NH2) [Peptide 1002-G6] | 0.45 | 1098 pg/mL | 0.9 | -36.2 pg/mL | 26%
3 | 1002-Q9: single substituted 1002 peptide (VQRWLIVWQIRK-NH2) [Peptide 1002-Q9] | 0.05 | 127 pg/mL | 7.2 | 1514.2 pg/mL | 41%
4 | 1018-G11: single substituted 1018 peptide (VRLIVAVRIWGR-NH2) [Peptide 1018-G11] | 0.91 | 1189 pg/mL | 48 | 7922 pg/mL | 40%
5 | 1018-V9: single substituted 1018 peptide (VRLIVAVRVWRR-NH2) [Peptide 1018-V9] | 0.11 | 142 pg/mL | 105 | 17711 pg/mL | 53%
6 | 1018-K1: single substituted 1018 peptide (KRLIVAVRIWRR-NH2) [Peptide 1018-K1] | 0.13 | 173 pg/mL | 1.2 | 40 pg/mL | 49%
7 | HH2-L5: single substituted HH2 peptide (VQLRLRVAVIRA-NH2) | 0.88 | 1156 pg/mL | 1.6 | 97 pg/mL | 58%
8 | 1018-L1: single substituted 1018 peptide (LRLIVAVRIWRR-NH2) [Peptide 1018-L1] | 0.21 | 282 pg/mL | 4.1 | 531 pg/mL | 72%
9 | 1018-R5: single substituted 1018 peptide (VRLIRAVRIWRR-NH2) [Peptide 1018-R5] | 1.50 | 1973 pg/mL | 0.8 | -41 pg/mL | 4%
10 | HH2-G1: single substituted HH2 peptide (GQLRIRVAVIRA-NH2) | 1.17 | 1533 pg/mL | 1.9 | 157 pg/mL | 65%
11 | 1018-Q4: single substituted 1018 peptide (VRLQVAVRIWRR-NH2) [Peptide 1018-Q4] | 0.35 | 458 pg/mL | 0.4 | -104 pg/mL | 39%
12 | 1002-G4: single substituted 1002 peptide (VQRGLIVWRIRK-NH2) [Peptide 1002-G4] | 0.29 | 723 pg/mL | 1.1 | 33.0 pg/mL | 42%
13 | 1002-I4: single substituted 1002 peptide (VQRILIVWRIRK-NH2) [Peptide 1002-I4] | 0.09 | 213 pg/mL | 2.1 | 273.6 pg/mL | 62%
14 | HH2-V11: single substituted HH2 peptide (VQLRIRVAVIVA-NH2) | 1.15 | 1515 pg/mL | 5.6 | 788 pg/mL | 51%
15 | 1002-K4: single substituted 1002 peptide (VQRKLIVWRIRK-NH2) [Peptide 1002-K4] | 0.43 | 1065 pg/mL | 1.4 | 106.3 pg/mL | 0%
16 | HH2-R3: single substituted HH2 peptide (VQRRIRVAVIRA-NH2) | 1.33 | 1746 pg/mL | 60 | 9987 pg/mL | 0%
17 | HH2-G8: single substituted HH2 peptide (VQLRIRVGVIRA-NH2) | 1.02 | 1344 pg/mL | 1.9 | 157 pg/mL | 54%
18 | 1018-L10: single substituted 1018 peptide (VRLIVAVRILRR-NH2) [Peptide 1018-L10] | 0.10 | 127 pg/mL | 0.7 | -60 pg/mL | 38%
19 | 1002-L10: single substituted 1002 peptide (VQRWLIVWRLRK-NH2) [Peptide 1002-L10] | 0.05 | 127 pg/mL | 3.0 | 493.6 pg/mL | 65%
20 | HH2-K7: single substituted HH2 peptide (VQLRIRKAVIRA-NH2) | 1.36 | 1782 pg/mL | 1.7 | 117 pg/mL | 7%
21 | 1002-K2: single substituted 1002 peptide (VKRWLIVWRIRK-NH2) [Peptide 1002-K2] | 0.05 | 127 pg/mL | 2.6 | 392.4 pg/mL | 69%
22 | 1018-W8: single substituted 1018 peptide (VRLIVAVWIWRR-NH2) [Peptide 1018-W8] | 0.34 | 448 pg/mL | 0.8 | -28 pg/mL | 43%
23 | HH2-W10: single substituted HH2 peptide (VQLRIRVAVWRA-NH2) | 1.02 | 1344 pg/mL | 15 | 2448 pg/mL | 48%
24 | 1002-G2: single substituted 1002 peptide (VGRWLIVWRIRK-NH2) [Peptide 1002-G2] | 0.05 | 127 pg/mL | 4.7 | 891.9 pg/mL | 74%
25 | HH2-W4: single substituted HH2 peptide (VQLWIRVAVIRA-NH2) | 0.30 | 399 pg/mL | 24 | 3945 pg/mL | 58%
